Literature values, collected in patent publication EP1239029B1, “Cleaning compositions” (UNILEVER PLC, priority 2001, dated 2002).
Like-named read-outs stand apart in the source and are kept apart here.

[1] = other common materials, by contrast, at 20°C

Compound	Water Solubility (g/100g) (highly water-soluble materials, grams of solid to form a saturated solution in 100 grams of water at 20°C)	Water Solubility (g/100g) [1]
NC(N)=O [Urea]	>100 g/100g	
O=BO[O-].[Na+] [Sodium perborate anhydrous]		3.7 g/100g
O=P(O)(O)OP(=O)(O)OP(=O)(O)O [Sodium tripolyphosphate anhydrous]		15 g/100g
